Test results published in the supplement of paper PMC10883282.
± gives the standard deviation of the averaged measurements.

What was measured:
Assay in all cases: relative viability vs DMSO control (72 h) (fraction); higher = more viable cells
SYO-1 = system: SYO-1
Outline: (§1)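 Sarcoma cell lines were plated in 384 wells to reach 80–90% confluence, treated after 24 h with 2.5 µl of serially diluted compound and held 72 h at 37 °C, 5% CO2. Relative viability was taken as percent growth from ATPLite readings, averaged over up to triplicate wells. The values were rescaled so that 1 marks full and 0 marks none.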

HT1080 = system: HT1080
Outline: as §1

KHOS-NP = system: KHOS-NP
Outline: as §1

VA-ES-BJ = system: VA-ES-BJ
Outline: as §1

SK-LMS-1 = system: SK-LMS-1
Outline: as §1

A204 = system: A204
Outline: as §1

HS729 = system: HS729
Outline: as §1

SW684 = system: SW684
Outline: as §1

SW872 = system: SW872
Outline: as §1

SW1353 = system: SW1353
Outline: as §1

MES-SA = system: MES-SA
Outline: as §1

G401 = system: G401
Outline: as §1

CN(C)C/C=C/C(=O)Nc1cc2c(Nc3ccc(F)c(Cl)c3)ncnc2cc1O[C@H]1CCOC1 [Afatinib]
Conditions	relative viability
A204, 0.00017 µM	0.993 ± 0.055
A204, 0.00051 µM	1 ± 0.053
A204, 0.00152 µM	1.03 ± 0.042
A204, 0.00457 µM	0.976 ± 0.085
A204, 0.01372 µM	1.01 ± 0.081
A204, 0.04115 µM	0.945 ± 0.051
A204, 0.1235 µM	0.859 ± 0.046
A204, 0.3704 µM	0.595 ± 0.067
A204, 1.111 µM	0.34 ± 0.017
A204, 3.333 µM	0.175 ± 0.021
A204, 10 µM	0.00583 ± 0.0022
G401, 0.00017 µM	1.02 ± 0.019
G401, 0.00051 µM	1.03 ± 0.054
G401, 0.00152 µM	1.015 ± 0.0047
G401, 0.00457 µM	1.03 ± 0.021
G401, 0.01372 µM	1.03 ± 0.036
G401, 0.04115 µM	0.9814 ± 0.0069
G401, 0.1235 µM	0.97 ± 0.039
G401, 0.3704 µM	0.846 ± 0.037
G401, 1.111 µM	0.61 ± 0.0089
G401, 3.333 µM	0.472 ± 0.06
G401, 10 µM	0.212 ± 0.19
HS729, 0.00017 µM	1.07 ± 0.046
HS729, 0.00051 µM	0.975 ± 0.051
HS729, 0.00152 µM	0.989 ± 0.04
HS729, 0.00457 µM	0.953 ± 0.057
HS729, 0.01372 µM	0.958 ± 0.033
HS729, 0.04115 µM	0.968 ± 0.035
HS729, 0.1235 µM	0.937 ± 0.019
HS729, 0.3704 µM	0.802 ± 0.033
HS729, 1.111 µM	0.667 ± 0.026
HS729, 3.333 µM	0.529 ± 0.035
HS729, 10 µM	0.007367 ± 5.8e-05
HT1080, 0.00017 µM	1.1 ± 0.052
HT1080, 0.00051 µM	1.12 ± 0.021
HT1080, 0.00152 µM	1.1 ± 0.065
HT1080, 0.00457 µM	1.08 ± 0.038
HT1080, 0.01372 µM	1.07 ± 0.018
HT1080, 0.04115 µM	1.07 ± 0.019
HT1080, 0.1235 µM	1.11 ± 0.033
HT1080, 0.3704 µM	1.11 ± 0.039
HT1080, 1.111 µM	1.02 ± 0.032
HT1080, 3.333 µM	0.767 ± 0.11
HT1080, 10 µM	0.173 ± 0.099
KHOS-NP, 0.00017 µM	1.09 ± 0.018
KHOS-NP, 0.00051 µM	1.08 ± 0.016
KHOS-NP, 0.00152 µM	1.07 ± 0.025
KHOS-NP, 0.00457 µM	1.07 ± 0.019
KHOS-NP, 0.01372 µM	1.07 ± 0.025
KHOS-NP, 0.04115 µM	1.07 ± 0.032
KHOS-NP, 0.1235 µM	1.06 ± 0.046
KHOS-NP, 0.3704 µM	1.08 ± 0.019
KHOS-NP, 1.111 µM	1.02 ± 0.046
KHOS-NP, 3.333 µM	0.967 ± 0.048
KHOS-NP, 10 µM	0.0212 ± 0.012
MES-SA, 0.00017 µM	0.967 ± 0.036
MES-SA, 0.00051 µM	0.955 ± 0.039
MES-SA, 0.00152 µM	0.948 ± 0.037
MES-SA, 0.00457 µM	0.947 ± 0.035
MES-SA, 0.01372 µM	0.934 ± 0.041
MES-SA, 0.04115 µM	0.887 ± 0.027
MES-SA, 0.1235 µM	0.885 ± 0.038
MES-SA, 0.3704 µM	0.725 ± 0.024
MES-SA, 1.111 µM	0.452 ± 0.018
MES-SA, 3.333 µM	0.283 ± 0.04
MES-SA, 10 µM	0.24 ± 0.099
SK-LMS-1, 0.00017 µM	1.1 ± 0.056
SK-LMS-1, 0.00051 µM	1.1 ± 0.016
SK-LMS-1, 0.00152 µM	1.11 ± 0.027
SK-LMS-1, 0.00457 µM	1.08 ± 0.029
SK-LMS-1, 0.01372 µM	1.13 ± 0.048
SK-LMS-1, 0.04115 µM	1.04 ± 0.05
SK-LMS-1, 0.1235 µM	1.01 ± 0.034
SK-LMS-1, 0.3704 µM	0.879 ± 0.011
SK-LMS-1, 1.111 µM	0.724 ± 0.021
SK-LMS-1, 3.333 µM	0.462 ± 0.09
SK-LMS-1, 10 µM	0.135 ± 0.2
SW684, 0.00017 µM	1.18 ± 0.045
SW684, 0.00051 µM	1.18 ± 0.038
SW684, 0.00152 µM	1.23 ± 0.062
SW684, 0.00457 µM	1.18 ± 0.022
SW684, 0.01372 µM	1.14 ± 0.029
SW684, 0.04115 µM	1.13 ± 0.029
SW684, 0.1235 µM	1.1 ± 0.037
SW684, 0.3704 µM	1.04 ± 0.051
SW684, 1.111 µM	0.816 ± 0.011
SW684, 3.333 µM	0.527 ± 0.019
SW684, 10 µM	0.203 ± 0.15
SW872, 0.00017 µM	1.07 ± 0.036
SW872, 0.00051 µM	1.14 ± 0.039
SW872, 0.00152 µM	1.09 ± 0.012
SW872, 0.00457 µM	1.11 ± 0.065
SW872, 0.01372 µM	1.07 ± 0.04
SW872, 0.04115 µM	1.06 ± 0.057
SW872, 0.1235 µM	1.02 ± 0.07
SW872, 0.3704 µM	0.896 ± 0.057
SW872, 1.111 µM	0.595 ± 0.011
SW872, 3.333 µM	0.304 ± 0.0056
SW872, 10 µM	0.257 ± 0.079
SW1353, 0.00017 µM	1.03 ± 0.038
SW1353, 0.00051 µM	1.01 ± 0.048
SW1353, 0.00152 µM	0.965 ± 0.012
SW1353, 0.00457 µM	0.923 ± 0.035
SW1353, 0.01372 µM	0.822 ± 0.039
SW1353, 0.04115 µM	0.771 ± 0.011
SW1353, 0.1235 µM	0.749 ± 0.03
SW1353, 0.3704 µM	0.653 ± 0.018
SW1353, 1.111 µM	0.485 ± 0.037
SW1353, 3.333 µM	0.3677 ± 0.0033
SW1353, 10 µM	0.22 ± 0.17
SYO-1, 0.00017 µM	1.03 ± 0.049
SYO-1, 0.00051 µM	1.01 ± 0.016
SYO-1, 0.00152 µM	0.979 ± 0.03
SYO-1, 0.00457 µM	0.949 ± 0.036
SYO-1, 0.01372 µM	0.957 ± 0.063
SYO-1, 0.04115 µM	0.946 ± 0.022
SYO-1, 0.1235 µM	0.903 ± 0.042
SYO-1, 0.3704 µM	0.838 ± 0.022
SYO-1, 1.111 µM	0.5276 ± 0.003
SYO-1, 3.333 µM	0.00877 ± 0.0057
SYO-1, 10 µM	-0.00643 ± 0.0018
VA-ES-BJ, 0.00017 µM	1.09 ± 0.064
VA-ES-BJ, 0.00051 µM	1.1 ± 0.052
VA-ES-BJ, 0.00152 µM	1.06 ± 0.042
VA-ES-BJ, 0.00457 µM	1.03 ± 0.055
VA-ES-BJ, 0.01372 µM	0.983 ± 0.04
VA-ES-BJ, 0.04115 µM	0.974 ± 0.064
VA-ES-BJ, 0.1235 µM	0.968 ± 0.064
VA-ES-BJ, 0.3704 µM	0.911 ± 0.022
VA-ES-BJ, 1.111 µM	0.573 ± 0.027
VA-ES-BJ, 3.333 µM	0.351 ± 0.036
VA-ES-BJ, 10 µM	0.207 ± 0.0046
